Data taken from patent US11236069B2, “KIF18A inhibitors” (AMGEN INC., priority 2018, dated 2022).

Biological target: Recombinant human KIF18A (1-467 His-tagged) protein (Homo sapiens (Human), UniProt Q8NI77)
Assay: KIF18A Enzyme Assay: microtubule-stimulated ATPase activity (ADP-Glo)
Details: read-out: KIF18A ATPase IC50; 30 nM KIF18A, 30 μg/mL pig microtubules, ATP at Km 75 μM, ADP-Glo luminescence
Description: KIF18A Enzyme Assay: Microtubule-stimulated ATPase activity assay is used to measure KIF18A enzyme activity after treatment with compound. Compounds were 2-fold serially diluted in DMSO (Sigma Inc) over 22-point concentration range. […] The assay measures ADP formed from the ATPase reaction.

Chain of Recombinant human KIF18A (1-467 His-tagged) protein (Q8NI77 1-467): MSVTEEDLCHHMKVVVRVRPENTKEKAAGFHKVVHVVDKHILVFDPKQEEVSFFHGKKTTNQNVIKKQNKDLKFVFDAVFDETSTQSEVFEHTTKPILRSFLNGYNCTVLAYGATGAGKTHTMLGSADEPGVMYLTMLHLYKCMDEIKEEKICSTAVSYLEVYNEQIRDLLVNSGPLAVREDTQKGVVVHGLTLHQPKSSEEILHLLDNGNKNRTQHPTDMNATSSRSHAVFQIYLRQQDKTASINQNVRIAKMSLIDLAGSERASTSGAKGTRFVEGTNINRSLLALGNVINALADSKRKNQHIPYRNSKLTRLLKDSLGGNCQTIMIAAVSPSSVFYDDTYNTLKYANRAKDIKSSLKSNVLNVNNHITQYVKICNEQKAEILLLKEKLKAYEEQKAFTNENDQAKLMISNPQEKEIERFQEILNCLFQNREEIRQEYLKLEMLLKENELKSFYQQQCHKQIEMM
Chain of Recombinant human KIF18A (1-467 His-tagged) protein (P02550 whole entry partner): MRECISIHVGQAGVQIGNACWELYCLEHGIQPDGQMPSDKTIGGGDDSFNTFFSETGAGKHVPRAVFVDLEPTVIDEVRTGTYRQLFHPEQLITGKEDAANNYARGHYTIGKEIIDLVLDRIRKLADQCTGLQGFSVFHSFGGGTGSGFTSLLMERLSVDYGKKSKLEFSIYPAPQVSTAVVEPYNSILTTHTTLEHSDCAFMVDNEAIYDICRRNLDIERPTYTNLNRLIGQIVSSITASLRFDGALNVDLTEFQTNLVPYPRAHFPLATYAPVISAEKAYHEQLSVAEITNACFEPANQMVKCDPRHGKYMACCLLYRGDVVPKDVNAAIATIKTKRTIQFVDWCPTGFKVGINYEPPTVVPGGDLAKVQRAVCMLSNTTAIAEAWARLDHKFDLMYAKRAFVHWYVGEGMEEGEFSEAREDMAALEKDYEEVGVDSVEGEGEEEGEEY
Chain of Recombinant human KIF18A (1-467 His-tagged) protein (P02554 whole entry partner): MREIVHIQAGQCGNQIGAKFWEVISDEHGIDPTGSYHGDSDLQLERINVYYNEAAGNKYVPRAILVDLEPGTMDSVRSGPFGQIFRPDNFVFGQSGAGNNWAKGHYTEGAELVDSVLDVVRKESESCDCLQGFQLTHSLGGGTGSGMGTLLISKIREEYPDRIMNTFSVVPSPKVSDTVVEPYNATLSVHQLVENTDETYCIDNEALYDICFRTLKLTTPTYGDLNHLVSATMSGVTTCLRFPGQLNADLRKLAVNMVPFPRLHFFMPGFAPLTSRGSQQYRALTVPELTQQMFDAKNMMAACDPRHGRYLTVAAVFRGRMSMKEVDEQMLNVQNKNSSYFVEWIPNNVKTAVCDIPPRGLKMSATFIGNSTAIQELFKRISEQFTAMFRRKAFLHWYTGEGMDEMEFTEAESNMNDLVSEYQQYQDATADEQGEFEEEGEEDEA

IC50 | SMILES
182 nM | Cc1cc(NC(=O)c2ccc(S(=O)(=O)C3COC3)cc2N2CCC3(CC2)CC3)nc(N2CCC(F)(F)CC2)n1 [Example 14-1, N-(2-(4,4-Difluoropiperidin-1-yl)-6-methylpyrimidin-4-yl)-4-(oxetan-3-ylsulfonyl)-2-(6-azaspiro[2.5]octan-6-yl)benzamide]
108 nM | CCS(=O)(=O)c1ccc(C(=O)Nc2cc(C)nc(N3CCC(F)(F)CC3)n2)c(N2CCC3(CC2)CC3)c1 [Example 14-2, N-(2-(4,4-Difluoropiperidin-1-yl)-6-methylpyrimidin-4-yl)-4-(ethylsulfonyl)-2-(6-azaspiro[2.5]octan-6-yl)benzamide]
128 nM | Cc1cc(NC(=O)c2ccc(S(=O)(=O)C(C)C)cc2N2CCC3(CC2)CC3)nc(N2CCC(F)(F)CC2)n1 [Example 14-3, N-(2-(4,4-Difluoropiperidin-1-yl)-6-methylpyrimidin-4-yl)-4-(isopropylsulfonyl)-2-(6-azaspiro[2.5]octan-6-yl)benzamide]
806 nM | Cc1cc(NC(=O)c2ccc(S(=O)(=O)CC(C)(C)O)cc2N2CCC3(CC2)CC3)nc(N2CCC(F)(F)CC2)n1 [Example 14-4, N-(2-(4,4-Difluoropiperidin-1-yl)-6-methylpyrimidin-4-yl)-4-((2-hydroxy-2-methylpropyl)sulfonyl)-2-(6-azaspiro[2.5]octan-6-yl)benzamide]
826 nM | Cc1cc(NC(=O)c2ccc(S(=O)(=O)C3CC3)cc2N2CCC3(CC2)CC3)nc(N2CCC(F)(F)CC2)n1 [Example 14-5, 4-(Cyclopropylsulfonyl)-N-(2-(4,4-difluoropiperidin-1-yl)-6-methylpyrimidin-4-yl)-2-(6-azaspiro[2.5]octan-6-yl)benzamide]
1880 nM | Cc1cc(NC(=O)c2ccc(S(=O)(=O)C(C)(C)C)cc2N2CCC3(CC2)CC3)nc(N2CCC(F)(F)CC2)n1 [Example 14-6, 4-(tert-Butylsulfonyl)-N-(2-(4,4-difluoropiperidin-1-yl)-6-methylpyrimidin-4-yl)-2-(6-azaspiro[2.5]octan-6-yl)benzamide]
94 nM | Cc1cc(NC(=O)c2ccc(S(=O)(=O)[C@@H]3COC[C@H]3O)cc2N2CCC3(CC2)CC3)nc(N2CCC(F)(F)CC2)n1 [Example 14-7, N-(2-(4,4-Difluoropiperidin-1-yl)-6-methylpyrimidin-4-yl)-4-(((3R,4R)-4-hydroxytetrahydrofuran-3-yl)sulfonyl)-2-(6-azaspiro[2.5]octan-6-yl)benzamide]
97 nM | Cc1cc(NC(=O)c2ccc(S(=O)(=O)[C@H]3COC[C@@H]3O)cc2N2CCC3(CC2)CC3)nc(N2CCC(F)(F)CC2)n1 [Example 14-8, N-(2-(4,4-Difluoropiperidin-1-yl)-6-methylpyrimidin-4-yl)-4-(((S,4S)-4-hydroxytetrahydrofuran-3-yl)sulfonyl)-2-(6-azaspiro[2.5]octan-6-yl)benzamide]
195 nM | Cc1cc(NC(=O)c2ccc(S(=O)(=O)[C@@H]3CCC[C@H]3O)cc2N2CCC3(CC2)CC3)nc(N2CCC(F)(F)CC2)n1 [Example 14-9, N-(2-(4,4-Difluoropiperidin-1-yl)-6-methylpyrimidin-4-yl)-4-(((1R,2R)-2-hydroxycyclopentyl)sulfonyl)-2-(6-azaspiro[2.5]octan-6-yl)benzamide]
89 nM | Cc1cc(NC(=O)c2ccc(NS(=O)(=O)[C@H](CO)CF)cc2N2CCC3(CC2)CC3)nc(N2CCC(F)(F)CC2)n1 [Example 16-1, (R)-N-(2-(4,4-Difluoropiperidin-1-yl)-6-methylpyrimidin-4-yl)-4-((2-fluoro-1-(hydroxymethyl)ethyl)sulfonamido)-2-(6-azaspiro[2.5]octan-6-yl)benzamide]
96 nM | Cc1cc(NC(=O)c2ccc(NS(=O)(=O)[C@@H](CO)CF)cc2N2CCC3(CC2)CC3)nc(N2CCC(F)(F)CC2)n1 [Example 16-2, (S)-N-(2-(4,4-Difluoropiperidin-1-yl)-6-methylpyrimidin-4-yl)-4-((2-fluoro-1-(hydroxymethyl)ethyl)sulfonamido)-2-(6-azaspiro[2.5]octan-6-yl)benzamide]
27 nM | O=C(Nc1ccnc(OCCC(F)(F)F)n1)c1ccc(S(=O)(=O)NCCO)cc1N1CCC2(CC1)CC2 [Example 17-1, 4-(N-(2-Hydroxyethyl)sulfamoyl)-2-(6-azaspiro[2.5]octan-6-yl)-N-(2-(3,3,3-trifluoropropoxy)pyrimidin-4-yl)benzamide]
42 nM | Cc1cc(NC(=O)c2ccc(S(=O)(=O)NCCO)cc2N2CCC3(CC2)CC3)nc(OCCC(F)(F)F)n1 [Example 17-2, 4-(N-(2-Hydroxyethyl)sulfamoyl)-N-(6-methyl-2-(3,3,3-trifluoropropoxy)pyrimidin-4-yl)-2-(6-azaspiro[2.5]octan-6-yl)benzamide]
63 nM | Cc1cc(NC(=O)c2ccc(S(=O)(=O)NCCO)cc2N2CCC3(CC2)CC3)nc(N2CCC(F)(F)CC2)n1 [Example 17-3, N-(2-(4,4-Difluoropiperidin-1-yl)-6-methylpyrimidin-4-yl)-4-(N-(2-hydroxyethyl)sulfamoyl)-2-(6-azaspiro[2.5]octan-6-yl)benzamide]
23 nM | O=C(Nc1ccnc(N2CCC(F)(F)CC2)n1)c1ccc(S(=O)(=O)NCCO)cc1N1CCC2(CC1)CC2 [Example 17-4, N-(2-(4,4-Difluoropiperidin-1-yl)pyrimidin-4-yl)-4-(N-(2-hydroxyethyl)sulfamoyl)-2-(6-azaspiro[2.5]octan-6-yl)benzamide]
133 nM | Cc1cc(NC(=O)c2ccc(S(=O)(=O)NCCO)cc2N2CCC3(CC2)CC3)nc(N2CC(F)(F)C2)n1 [Example 17-5, N-(2-(3,3-Difluoroazetidin-1-yl)-6-methylpyrimidin-4-yl)-4-(N-(2-hydroxyethyl)sulfamoyl)-2-(6-azaspiro[2.5]octan-6-yl)benzamide]
127 nM | Cc1cc(NC(=O)c2ccc(S(=O)(=O)N[C@H](C)CO)cc2N2CCC3(CC2)CC3)nc(N2CCC(F)(F)CC2)n1 [Example 17-6, (R)-N-(2-(4,4-Difluoropiperidin-1-yl)-6-methylpyrimidin-4-yl)-4-(N-(1-hydroxypropan-2-yl)sulfamoyl)-2-(6-azaspiro[2.5]octan-6-yl)benzamide]

The remaining lines, values behind:

SMILES | IC50
Cc1cc(NC(=O)c2ccc(NS(=O)(=O)[C@H]3CCOC3)cc2N2CCC3(CC2)CC3)nc(N2CCC(F)(F)CC2)n1 [Example 11-72, (S)-N-(2-(4,4-Difluoropiperidin-1-yl)-6-methylpyrimidin-4-yl)-2-(6-azaspiro[2.5]octan-6-yl)-4-((tetrahydrofuran)-3-sulfonamido)benzamide] | 135 nM
Cc1cc(NC(=O)c2ccc(NS(=O)(=O)C3(C)CC3)cc2N2CCC3(CC2)CC3)nc(N2CC(F)(F)C2)n1 [Example 11-74, N-(2-(3,3-Difluoroazetidin-1-yl)-6-methylpyrimidin-4-yl)-4-((1-methylcyclopropane)-1-sulfonamido)-2-(6-azaspiro[2.5]octan-6-yl)benzamide] | 94 nM
Cc1cc(NC(=O)c2ccc(NS(=O)(=O)C(C)C)cc2N2CCC3(CC2)CC3)nc(N2CC(F)(F)C2)n1 [Example 11-75, N-(2-(3,3-Difluoroazetidin-1-yl)-6-methylpyrimidin-4-yl)-4-((1-methylethyl)sulfonamido)-2-(6-azaspiro[2.5]octan-6-yl)benzamide] | 56 nM
Cc1cc(NC(=O)c2ccc(NS(=O)(=O)[C@@H](C)CO)cc2N2CCC3(CC2)CC3)nc(N2CC(F)(F)C2)n1 [Example 11-77, (S)-N-(2-(3,3-Difluoroazetidin-1-yl)-6-methylpyrimidin-4-yl)-4-((2-hydroxy-1-methylethyl)sulfonamido)-2-(6-azaspiro[2.5]octan-6-yl)benzamide] | 34 nM
Cc1cc(NC(=O)c2ccc(NS(=O)(=O)CC3CC3)cc2N2CCC3(CC2)CC3)nc(N2CC(F)(F)C2)n1 [Example 11-78, 4-((Cyclopropylmethyl)sulfonamido)-N-(2-(3,3-difluoroazetidin-1-yl)-6-methylpyrimidin-4-yl)-2(6-azaspiro[2.5]octan-6-yl)benzamide] | 125 nM
Cc1cc(NC(=O)c2ccc(NS(=O)(=O)CCO)cc2N2CCC3(CC2)CC3)nc(OC(C)C)n1 [Example 11-79, 4-((2-Hydroxyethyl)sulfonamido)-N-(2-isopropoxy-6-methylpyrimidin-4-yl)-2-(6-azaspiro[2.5]octan-6-yl)benzamide] | 57 nM
Cc1cc(NC(=O)c2ccc(NS(=O)(=O)CCO)cc2N2CCC3(CC2)CC3)nc(O[C@@H]2CCOC2)n1 [Example 11-80, (R)-4-((2-Hydroxyethyl)sulfonamido)-N-(6-methyl-2-((tetrahydrofuran-3-yl)oxy)pyrimidin-4-yl)-2-(6-azaspiro[2.5]octan-6-yl)benzamide] | 117 nM
Cc1cc(NC(=O)c2ccc(NS(C)(=O)=O)cc2N2CCC3(CC2)CC3)nc(N2CCC(F)CC2)n1 [Example 11-81, N-(2-(4-Fluoropiperidin-1-yl)-6-methylpyrimidin-4-yl)-4-(methylsulfonamido)-2-(6-azaspiro[2.5]octan-6-yl)benzamide] | 60 nM
CCS(=O)(=O)Nc1ccc(C(=O)Nc2cc(C)nc(N3CCC(F)CC3)n2)c(N2CCC3(CC2)CC3)c1 [Example 11-82, 4-(Ethylsulfonamido)-N-(2-(4-fluoropiperidin-1-yl)-6-methylpyrimidin-4-yl)-2-(6-azaspiro[2.5]octan-6-yl)benzamide] | 51 nM
Cc1cc(NC(=O)c2ccc(NS(=O)(=O)C(C)(C)C)cc2N2CCC3(CC2)CC3)nc(N2CC(F)(F)C2)n1 [Example 11-83, N-(2-(3,3-Difluoroazetidin-1-yl)-6-methylpyrimidin-4-yl)-4-((1,1-dimethylethyl)sulfonamido)-2-(6-azaspiro[2.5]octan-6-yl)benzamide] | 98 nM
O=C(Nc1ccnc(N2CCC(F)(F)CC2)c1)c1ccc(S(=O)(=O)NCCO)cc1N1CCC2(CC1)CC2 [Example 17, N-(2-(4,4-Difluoropiperidin-1-yl)pyridin-4-yl)-4-(N-(2-hydroxyethyl)sulfamoyl)-2-(6-azaspiro[2.5]octan-6-yl)benzamide] | 23 nM
